# Experimental data published in US6852673B2, “Herbicidal pyridine compounds” (BASF Aktiengesellschaft, priority 1998, dated 2005).
# Legend:
# Assay type in all cases: in vivo
# [1] = system: Setaria viridis (SETVI); test: Post-emergence herbicidal evaluation, green foxtail; conditions: rated 2 to 4 weeks after treatment
# Procedure: (§1) [table] [table] […] These acetone solutions are diluted with water and the resulting formulations applied at dosage levels equivalent of about 0.03 to 0.4 kg per hectare of test compound per pot. After spraying the plants are placed on greenhouse benches and are cared for in the usual manner, commensurate with conventional greenhouse practices. From 2 to 4 weeks after treatment, the seedling plants are examined and rated according to the rating system provided above. A rating 0 indicates growth as untreated control, a rating 9 indicates death.
# [2] = system: Lamium purpureum (LAMPU); test: Pre-emergence herbicidal evaluation, purple deadnettle
# Description: (§2) The pre-emergence herbicidal activity of the compounds of the present invention is exemplified by the following test in which the seeds of a variety of monocotyledonous and dicotyledonous plants are seperately mixed with potting soil and planted on top of approximately one inch of soil in separate pots. After planting, the pots are sprayed with the selected aqueous acetone solution containing test compound in sufficient quantity to provide the equivalent of about 0.0125 to 0.4 kg per hectare of test compound per pot. The treated pots are then placed on greenhouse benches, watered and cared for in accordance with conventional greenhouse procedures. From 2 to 4 weeks after treatment, the tests are terminated and each pot is examined and rated according to the rating system set forth below.
# [3] = system: Ambrosia artemiisifolia (AMBEL); test: Post-emergence herbicidal evaluation, ragweed; conditions: rated 2 to 4 weeks after treatment
# Procedure: as §1
# [4] = system: Echinochloa grus galli (ECHCG); test: Pre-emergence herbicidal evaluation, barnyard grass
# Description: as §2
# [5] = system: Oryza sativum (ORYSA); test: Pre-emergence herbicidal evaluation, rice
# Description: as §2
# [6] = system: Zea mays (ZEAMX); test: Post-emergence herbicidal evaluation, maize; conditions: rated 2 to 4 weeks after treatment
# Procedure: as §1
# [7] = system: Setaria viridis (SETVI); test: Pre-emergence herbicidal evaluation, green foxtail
# Description: as §2
# [8] = system: Oryza sativum (ORYSA); test: Post-emergence herbicidal evaluation, rice; conditions: rated 2 to 4 weeks after treatment
# Procedure: as §1
# [9] = system: Galium aparine (GALAP); test: Pre-emergence herbicidal evaluation, cleaver
# Description: as §2
# [10] = system: Abutilon theophrasti (ABUTH); test: Pre-emergence herbicidal evaluation, velvetleaf
# Description: as §2
# [11] = system: Hordeum vulgare (HORVW); test: Pre-emergence herbicidal evaluation, winter barley
# Description: as §2
# [12] = system: Hordeum vulgare (HORVW); test: Post-emergence herbicidal evaluation, winter barley; conditions: rated 2 to 4 weeks after treatment
# Procedure: as §1
# [13] = system: Matricaria inodora (MATIN); test: Pre-emergence herbicidal evaluation, mayweed
# Description: as §2
# [14] = system: Echinochloa grus galli (ECHCG); test: Post-emergence herbicidal evaluation, barnyard grass; conditions: rated 2 to 4 weeks after treatment
# Procedure: as §1
# [15] = system: Alopecurus myosuroides (ALOMY); test: Post-emergence herbicidal evaluation, black grass; conditions: rated 2 to 4 weeks after treatment
# Procedure: as §1
# [16] = system: Abutilon theophrasti (ABUTH); test: Post-emergence herbicidal evaluation, velvetleaf; conditions: rated 2 to 4 weeks after treatment
# Procedure: as §1
# [17] = system: Triticum aestivum (TRZAW); test: Pre-emergence herbicidal evaluation, winter wheat
# Description: as §2
# [18] = system: Alopecurus myosuroides (ALOMY); test: Pre-emergence herbicidal evaluation, black grass
# Description: as §2
# [19] = system: Ipomoea hederacea (IPOHE); test: Pre-emergence herbicidal evaluation, morning glory
# Description: as §2
# [20] = system: Matricaria inodora (MATIN); test: Post-emergence herbicidal evaluation, mayweed; conditions: rated 2 to 4 weeks after treatment
# Procedure: as §1
# [21] = system: Galium aparine (GALAP); test: Post-emergence herbicidal evaluation, cleaver; conditions: rated 2 to 4 weeks after treatment
# Procedure: as §1
# [22] = system: Triticum aestivum (TRZAW); test: Post-emergence herbicidal evaluation, winter wheat; conditions: rated 2 to 4 weeks after treatment
# Procedure: as §1
# [23] = system: Ambrosia artemiisifolia (AMBEL); test: Pre-emergence herbicidal evaluation, ragweed
# Description: as §2
# [24] = system: Ipomoea hederacea (IPOHE); test: Post-emergence herbicidal evaluation, morning glory; conditions: rated 2 to 4 weeks after treatment
# Procedure: as §1
# [25] = system: Stellaria media (STEME); test: Pre-emergence herbicidal evaluation, chickweed
# Description: as §2
smiles,measurement,setting,value
CC(Cl)=CCOc1cc(C)cc(Oc2cc(C(F)(F)F)nn2C)n1 [Example 11],SETVI rating,[1]; dose 0.03 kg/ha,5 (5 - Definite injury)
same,SETVI rating,[1]; dose 0.1 kg/ha,6 (6 - Herbicidal effect)
same,SETVI rating,[1]; dose 0.4 kg/ha,8 (8 - Approaching complete kill)
same,LAMPU rating,[2]; dose 0.013 kg/ha,5 (5 - Definite injury)
same,LAMPU rating,[2]; dose 0.025 kg/ha,8 (8 - Approaching complete kill)
same,LAMPU rating,[2]; dose 0.1 kg/ha,8 (8 - Approaching complete kill)
same,LAMPU rating,[2]; dose 0.4 kg/ha,9 (9 - Complete kill)
same,AMBEL rating,[3]; dose 0.03 kg/ha,3 (3 - Moderate effect)
same,AMBEL rating,[3]; dose 0.1 kg/ha,7 (7 - Good herbicidal effect)
same,AMBEL rating,[3]; dose 0.4 kg/ha,8 (8 - Approaching complete kill)
same,ECHCG rating,[4]; dose 0.013 kg/ha,4 (4 - Injury)
same,ECHCG rating,[4]; dose 0.025 kg/ha,6 (6 - Herbicidal effect)
same,ECHCG rating,[4]; dose 0.1 kg/ha,8 (8 - Approaching complete kill)
same,ECHCG rating,[4]; dose 0.4 kg/ha,9 (9 - Complete kill)
same,ORYSA rating,[5]; dose 0.013 kg/ha,1 (1 - Trace effect)
same,ORYSA rating,[5]; dose 0.025 kg/ha,1 (1 - Trace effect)
same,ORYSA rating,[5]; dose 0.1 kg/ha,2 (2 - Slight effect)
same,ORYSA rating,[5]; dose 0.4 kg/ha,3 (3 - Moderate effect)
same,ZEAMX rating,[6]; dose 0.03 kg/ha,2 (2 - Slight effect)
same,ZEAMX rating,[6]; dose 0.1 kg/ha,5 (5 - Definite injury)
same,ZEAMX rating,[6]; dose 0.4 kg/ha,5 (5 - Definite injury)
same,activity against Setaria,[7],superior activity
same,SETVI rating,[7]; dose 0.013 kg/ha,7 (7 - Good herbicidal effect)
same,SETVI rating,[7]; dose 0.025 kg/ha,8 (8 - Approaching complete kill)
same,SETVI rating,[7]; dose 0.1 kg/ha,9 (9 - Complete kill)
same,SETVI rating,[7]; dose 0.4 kg/ha,9 (9 - Complete kill)
same,ORYSA rating,[8]; dose 0.03 kg/ha,1 (1 - Trace effect)
same,ORYSA rating,[8]; dose 0.1 kg/ha,3 (3 - Moderate effect)
same,ORYSA rating,[8]; dose 0.4 kg/ha,4 (4 - Injury)
same,GALAP rating,[9]; dose 0.013 kg/ha,1 (1 - Trace effect)
same,GALAP rating,[9]; dose 0.025 kg/ha,3 (3 - Moderate effect)
same,GALAP rating,[9]; dose 0.1 kg/ha,6 (6 - Herbicidal effect)
same,GALAP rating,[9]; dose 0.4 kg/ha,8 (8 - Approaching complete kill)
same,activity against Abutilon,[10],superior activity
same,ABUTH rating,[10]; dose 0.013 kg/ha,3 (3 - Moderate effect)
same,ABUTH rating,[10]; dose 0.025 kg/ha,7 (7 - Good herbicidal effect)
same,ABUTH rating,[10]; dose 0.1 kg/ha,9 (9 - Complete kill)
same,ABUTH rating,[10]; dose 0.4 kg/ha,9 (9 - Complete kill)
same,HORVW rating,[11]; dose 0.013 kg/ha,3 (3 - Moderate effect)
same,HORVW rating,[11]; dose 0.025 kg/ha,3 (3 - Moderate effect)
same,HORVW rating,[11]; dose 0.1 kg/ha,3 (3 - Moderate effect)
same,HORVW rating,[11]; dose 0.4 kg/ha,6 (6 - Herbicidal effect)
same,HORVW rating,[12]; dose 0.03 kg/ha,3 (3 - Moderate effect)
same,HORVW rating,[12]; dose 0.1 kg/ha,4 (4 - Injury)
same,HORVW rating,[12]; dose 0.4 kg/ha,4 (4 - Injury)
same,MATIN rating,[13]; dose 0.013 kg/ha,9 (9 - Complete kill)
same,MATIN rating,[13]; dose 0.025 kg/ha,9 (9 - Complete kill)
same,MATIN rating,[13]; dose 0.1 kg/ha,9 (9 - Complete kill)
same,MATIN rating,[13]; dose 0.4 kg/ha,9 (9 - Complete kill)
same,ECHCG rating,[14]; dose 0.03 kg/ha,8 (8 - Approaching complete kill)
same,ECHCG rating,[14]; dose 0.1 kg/ha,8 (8 - Approaching complete kill)
same,ECHCG rating,[14]; dose 0.4 kg/ha,8 (8 - Approaching complete kill)
same,ALOMY rating,[15]; dose 0.03 kg/ha,6 (6 - Herbicidal effect)
same,ALOMY rating,[15]; dose 0.1 kg/ha,8 (8 - Approaching complete kill)
same,ALOMY rating,[15]; dose 0.4 kg/ha,8 (8 - Approaching complete kill)
same,ABUTH rating,[16]; dose 0.03 kg/ha,5 (5 - Definite injury)
same,ABUTH rating,[16]; dose 0.1 kg/ha,7 (7 - Good herbicidal effect)
same,ABUTH rating,[16]; dose 0.4 kg/ha,8 (8 - Approaching complete kill)
same,TRZAW rating,[17]; dose 0.013 kg/ha,0 (0 - No effect)
same,TRZAW rating,[17]; dose 0.025 kg/ha,2 (2 - Slight effect)
same,TRZAW rating,[17]; dose 0.1 kg/ha,2 (2 - Slight effect)
same,TRZAW rating,[17]; dose 0.4 kg/ha,4 (4 - Injury)
same,ALOMY rating,[18]; dose 0.013 kg/ha,6 (6 - Herbicidal effect)
same,ALOMY rating,[18]; dose 0.025 kg/ha,9 (9 - Complete kill)
same,ALOMY rating,[18]; dose 0.1 kg/ha,9 (9 - Complete kill)
same,ALOMY rating,[18]; dose 0.4 kg/ha,9 (9 - Complete kill)
same,IPOHE rating,[19]; dose 0.013 kg/ha,2 (2 - Slight effect)
same,IPOHE rating,[19]; dose 0.025 kg/ha,4 (4 - Injury)
same,IPOHE rating,[19]; dose 0.1 kg/ha,8 (8 - Approaching complete kill)
same,IPOHE rating,[19]; dose 0.4 kg/ha,9 (9 - Complete kill)
same,MATIN rating,[20]; dose 0.03 kg/ha,7 (7 - Good herbicidal effect)
same,MATIN rating,[20]; dose 0.1 kg/ha,8 (8 - Approaching complete kill)
same,MATIN rating,[20]; dose 0.4 kg/ha,8 (8 - Approaching complete kill)
same,GALAP rating,[21]; dose 0.03 kg/ha,6 (6 - Herbicidal effect)
same,GALAP rating,[21]; dose 0.1 kg/ha,9 (9 - Complete kill)
same,GALAP rating,[21]; dose 0.4 kg/ha,9 (9 - Complete kill)
same,TRZAW rating,[22]; dose 0.03 kg/ha,3 (3 - Moderate effect)
same,TRZAW rating,[22]; dose 0.1 kg/ha,3 (3 - Moderate effect)
same,TRZAW rating,[22]; dose 0.4 kg/ha,3 (3 - Moderate effect)
same,AMBEL rating,[23]; dose 0.013 kg/ha,7 (7 - Good herbicidal effect)
same,AMBEL rating,[23]; dose 0.025 kg/ha,9 (9 - Complete kill)
same,AMBEL rating,[23]; dose 0.1 kg/ha,9 (9 - Complete kill)
same,AMBEL rating,[23]; dose 0.4 kg/ha,9 (9 - Complete kill)
same,IPOHE rating,[24]; dose 0.03 kg/ha,6 (6 - Herbicidal effect)
same,IPOHE rating,[24]; dose 0.1 kg/ha,9 (9 - Complete kill)
same,IPOHE rating,[24]; dose 0.4 kg/ha,9 (9 - Complete kill)
same,activity against Stellaria,[25],superior activity
same,STEME rating,[25]; dose 0.013 kg/ha,8 (8 - Approaching complete kill)
same,STEME rating,[25]; dose 0.025 kg/ha,9 (9 - Complete kill)
same,STEME rating,[25]; dose 0.1 kg/ha,9 (9 - Complete kill)
same,STEME rating,[25]; dose 0.4 kg/ha,9 (9 - Complete kill)
